Measured values taken from US4393076A, “Anti-inflammatory and analgesic gel composition” (priority 1980, dated 1983).

Experiments:
[1] = orally administered; cited from earlier work
[2] = for Stability: indomethacin: to alkalies, ketoprofen and flurbiprofen: to the gel base
[3] = test system: gastric mucous membrane; assay: Gastric mucous membrane troubles in rats (ulceration); assay type: in vivo, rats (Wister strain, male); details: oral, 1 mg/Kg, 6 hours
Protocol: Anti-inflammatory activity on gastric mucous membrane troubles in rats
Male rats of Wister strain, each weighing about 200 g, were fasted except for unlimited feeding of water for a time period of 24 hours, after which each of the test compounds shown in Table 4 was administered to the rats so fasted. […] Six hours after said administration, the test animals were slaughtered to remove their stomachs which were incised along the greater curvature thereof to visually observe whether or not an ulcer was formed at the gastric mucous membrane of their stomachs. The ulceration ratio (%) was calculated from the following equation: [formula]

| SMILES | Medicinal efficacy compared with the effective ingredient of the composition of this invention [1] | Crystallization ([2]; gel base, in words) | Solubility in the gel base ([2]; in words) | Stability [2] | Ulceration ratio [3] [%] | Ulceration ratio ([3]; listed as indomethacin powder) [%] |
| --- | --- | --- | --- | --- | --- | --- |
| COc1ccc2c(c1)c(CC(=O)O)c(C)n2C(=O)c1ccc(Cl)cc1 [indomethacin] | equal or slightly superior in medicinal efficacy | apt to crystallize out | inferior in solubility in the gel base | unstable to alkalies |  |  |
| CC(C(=O)O)c1ccc(-c2ccccc2)c(F)c1 (centres unmarked) [flurbiprofen] |  |  | excellent | excellent in stability |  |  |
| COc1ccc2c(c1)c(CC(=O)O)c(C)n2C(=O)c1ccc(Cl)cc1 [Indomethacin powder] |  |  |  |  | 100.0 | 100 |
